The values that follow come from PubChem BioAssay (NCI).

Molecules are shown by their SMILES.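 Dose response: 5 concentrations. Exposure: 48 h. Format: 96-well plates. Endpoint: linear interpolation; highest concentration if not reached. GI50 marks 50% less growth. TGI marks complete inhibition of growth.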 A value given as a limit tells only on which side of the number the result lay.

For one assay, the system named is OVCAR-3 ovarian. Briefly: inhibition of tumour cell growth, NCI panel, 48 h.
In the case of `CC1=Nc2ccccc2S/C1=C(/C)NNC(=O)C(N)=O`, the TGI is over 100 µM.

Compound `Nn1c(NNC(=O)C(=O)Nc2cc(Cl)c(Cl)cc2Cl)n[nH]c1=S` had a TGI of over 100 µM.

Take `COc1ccc2c(c1)/C(=C\c1c(C)nc3sccn13)C(=O)N2`: the GI50 was under 0.01 µM.

`O=C(N/C(=C\c1ccc2c(c1)OCO2)c1nc2ccccc2[nH]1)c1ccccc1` registered a TGI of 81.9 µM.

With `Cc1[nH]ccc2c1[nH]c1cc(=O)ccc12`, the TGI is over 100 µM.

Compound `C#CCOCn1cnc2c(Cl)ncnc21` registered a TGI of over 100 µM.

Turning to `NC1C[C@H](n2cc(/C=C/Br)c(=O)[nH]c2=O)C[C@@H]1CO` (stereo partly specified), the TGI is over 100 µM.

For `O=c1/c(=C/c2ccccc2F)sc2nc3ccccc3n12`, the TGI was over 100 µM.

`Cc1ccc(N=Cc2ccc3c(c2)OCO3)cc1C` gave a TGI of over 100 µM.

Regarding `COC(C(=O)[O][Ge]([CH3])([CH3])[CH3])c1ccccc1` (stereo unspecified), the GI50 was over 100 µM and the TGI was over 100 µM.

Consider `CC(=O)OCC1OC(OC2C(CSC3OC(COC(C)=O)C(OC(C)=O)C(OC(C)=O)C3OC(C)=O)OC(OC(C)=O)C(OC(C)=O)C2OC(C)=O)C(OC(C)=O)C(OC(C)=O)C1OC(C)=O` (stereo unspecified), for which the TGI was over 100 µM.

The compound `COc1ccc(OC)c(NC(=O)C2=C(C)NC(C)=C(C(=O)Nc3cc(OC)ccc3OC)C2c2ccccc2)c1` registered a TGI of over 100 µM.

As to `Nc1ccn(CCNCCn2cnc3nc(N)[nH]c(=O)c32)c(=O)n1`, the TGI was over 100 µM.

The next assay has as its system EKVX NSCLC. Kind of assay: inhibition of tumour cell growth, NCI panel, 48 h.
`C/C(=N\NS(=O)(=O)c1ccccc1)c1ccc(Cl)c(Cl)c1` came in with a TGI of over 100 µM.

In turn, `CCCNC1=C(C(=O)OCC)C(=O)CO1` returned a TGI of over 100 µM.

The compound `COC(=O)C(=O)C1(CCC(C)=O)c2ccccc2-c2c(C)ccc(C)c21` (stereo unspecified) returned a TGI of over 100 µM.

Turning to `CC1(C)C(=NNC(=O)C[N+](C)(C)C)C(C)(C)C1=NNC(=O)C[N+](C)(C)C`, the TGI was over 100 µM.

`COc1ccc2nc(-c3cccs3)cc(C(O)CN3CCSCC3)c2c1` (stereo unspecified) had a TGI of 97.1 µM.

With `N#C/C(=C\c1ccc(O)c(O)c1)C(N)=S`, the TGI was over 100 µM.

`O=C(CN1CCOCC1)Nc1nc(-c2ccc(Cl)cc2)cs1` registered a TGI of over 100 µM.

Regarding `CC1=C(Oc2ccccc2)C(CCC(=O)O)c2c(O)cc(Cl)c(O)c21` (stereo unspecified), the TGI is over 100 µM.

The compound `COc1cc(C(=O)C/C(CCCC(=O)Nc2ccccc2[N+](=O)[O-])=N/NC(=O)c2cc3ccccc3cc2O)ccc1O` returned a TGI of over 84.7 µM.

`CC(C)[C@H]1CO[C@]2(C)[C@@H]3CN(Cc4ccccc4)C[C@@H]3C(=O)N12` gave a TGI of over 100 µM.

In the case of `CN(C)C(=O)OC(Cn1cncn1)c1ccc(Cl)cc1Cl` (stereo unspecified), the TGI is over 100 µM.

`CCOC(=O)COc1ccccc1/C=C1\CCC(CN(C)C)C1=O` (stereo unspecified) gave a TGI of 34.7 µM.

`Cc1c(C(=O)C/C(=N\O)C(=O)Nc2cc(Cl)c(Cl)cc2Cl)[n+](=O)c2ccccc2n1[O-]` returned a TGI of 43.6 µM.

`CC1=Nc2ccccc2S/C1=C(/C)NNC(=O)C(N)=O` showed a TGI of over 100 µM.

In turn, `Nn1c(NNC(=O)C(=O)Nc2cc(Cl)c(Cl)cc2Cl)n[nH]c1=S` yielded a TGI of over 100 µM.

Consider `COc1ccc2c(c1)/C(=C\c1c(C)nc3sccn13)C(=O)N2`, for which the GI50 was 2.12 µM and the TGI is over 100 µM.

`O=C(N/C(=C\c1ccc2c(c1)OCO2)c1nc2ccccc2[nH]1)c1ccccc1`: the TGI is over 100 µM.

In turn, `CSc1ccc(C2OC(=O)c3ccccc32)c2ccccc12` (stereo unspecified) registered a TGI of over 100 µM.

For `Cc1[nH]ccc2c1[nH]c1cc(=O)ccc12`, the TGI was over 100 µM.

`C#CCOCn1cnc2c(Cl)ncnc21`: the TGI is over 100 µM.

Compound `NC1C[C@H](n2cc(/C=C/Br)c(=O)[nH]c2=O)C[C@@H]1CO` (stereo partly specified) gave a TGI of over 100 µM.

`O=c1/c(=C/c2ccccc2F)sc2nc3ccccc3n12`: the TGI was over 100 µM.

Take `COc1ccc(-c2n/c(=C\c3c(O)[nH]c4ccc(OC)cc34)cc3c2=Nc2ccccc2-3)cc1`: the GI50 is 21.2 µM and the TGI was 72.9 µM.

The compound `Cc1ccc(N=Cc2ccc3c(c2)OCO3)cc1C` came in with a TGI of over 100 µM.

With `COC(C(=O)[O][Ge]([CH3])([CH3])[CH3])c1ccccc1` (stereo unspecified), the GI50 is over 100 µM and the TGI was over 100 µM.

As for `CC(=O)OCC1OC(OC2C(CSC3OC(COC(C)=O)C(OC(C)=O)C(OC(C)=O)C3OC(C)=O)OC(OC(C)=O)C(OC(C)=O)C2OC(C)=O)C(OC(C)=O)C(OC(C)=O)C1OC(C)=O` (stereo unspecified), the TGI was over 100 µM.

Regarding `CCCCC(CC)CN=C(N)NC(N)=NCCCCCCN=C(N)NC(N)=NCC(CC)CCCC` (stereo unspecified), the GI50 is 1.74 µM and the TGI is 4.73 µM.

As to `COc1ccc(OC)c(NC(=O)C2=C(C)NC(C)=C(C(=O)Nc3cc(OC)ccc3OC)C2c2ccccc2)c1`, the TGI is over 100 µM.

Compound `Nc1ccn(CCNCCn2cnc3nc(N)[nH]c(=O)c32)c(=O)n1` came in with a TGI of over 100 µM.

A further assay has as its system OVCAR-8 ovarian. Kind of assay: inhibition of tumour cell growth, NCI panel, 48 h.
Compound `C/C(=N\NS(=O)(=O)c1ccccc1)c1ccc(Cl)c(Cl)c1` gave a TGI of over 100 µM.

Take `CCCNC1=C(C(=O)OCC)C(=O)CO1`: the TGI was over 100 µM.

In turn, `COC(=O)C(=O)C1(CCC(C)=O)c2ccccc2-c2c(C)ccc(C)c21` (stereo unspecified) registered a TGI of over 100 µM.

The compound `CC1(C)C(=NNC(=O)C[N+](C)(C)C)C(C)(C)C1=NNC(=O)C[N+](C)(C)C` gave a TGI of over 100 µM.

`COc1ccc2nc(-c3cccs3)cc(C(O)CN3CCSCC3)c2c1` (stereo unspecified): the TGI came to 57.8 µM.

Compound `N#C/C(=C\c1ccc(O)c(O)c1)C(N)=S` came in with a TGI of over 100 µM.

In turn, `O=C(CN1CCOCC1)Nc1nc(-c2ccc(Cl)cc2)cs1` gave a TGI of 72.2 µM.

`CC1=C(Oc2ccccc2)C(CCC(=O)O)c2c(O)cc(Cl)c(O)c21` (stereo unspecified): the TGI is over 100 µM.

Compound `COc1cc(C(=O)C/C(CCCC(=O)Nc2ccccc2[N+](=O)[O-])=N/NC(=O)c2cc3ccccc3cc2O)ccc1O` showed a TGI of over 100 µM.

`CC(C)[C@H]1CO[C@]2(C)[C@@H]3CN(Cc4ccccc4)C[C@@H]3C(=O)N12` returned a TGI of over 100 µM.

Consider `CN(C)C(=O)OC(Cn1cncn1)c1ccc(Cl)cc1Cl` (stereo unspecified), for which the TGI is over 100 µM.

Turning to `CCOC(=O)COc1ccccc1/C=C1\CCC(CN(C)C)C1=O` (stereo unspecified), the TGI is 15.1 µM.

Compound `Cc1c(C(=O)C/C(=N\O)C(=O)Nc2cc(Cl)c(Cl)cc2Cl)[n+](=O)c2ccccc2n1[O-]` returned a TGI of 40.7 µM.

In turn, `CC1=Nc2ccccc2S/C1=C(/C)NNC(=O)C(N)=O` returned a TGI of over 100 µM.

Turning to `Nn1c(NNC(=O)C(=O)Nc2cc(Cl)c(Cl)cc2Cl)n[nH]c1=S`, the TGI was over 100 µM.

Regarding `COc1ccc2c(c1)/C(=C\c1c(C)nc3sccn13)C(=O)N2`, the GI50 was 0.306 µM.

`O=C(N/C(=C\c1ccc2c(c1)OCO2)c1nc2ccccc2[nH]1)c1ccccc1` came in with a TGI of over 100 µM.

`CSc1ccc(C2OC(=O)c3ccccc32)c2ccccc12` (stereo unspecified) showed a TGI of over 100 µM.

In turn, `Cc1[nH]ccc2c1[nH]c1cc(=O)ccc12` displayed a TGI of over 100 µM.
